# Oligonucleotides are written 5' to 3', each unit as a sugar letter and its base; * is a phosphorothioate linkage, no mark a phosphodiester; rarer units and linkages stand in square brackets, end groups in braces. Plain capitals give the bases only. d = 2'-deoxy (DNA); r = 2'-OH (RNA)
# Target: UBE2H
# Test: reporter assay of Huesken 2005
# Conditions: siRNA
# Note: test concentration or dose not given here.
row,Substance,normalised inhibition (eCFP-eYFP dual reporter) [%]
1,sense rUrCrArUrCrGrArGrArGrUrArArArCrArUrGrAdTdT / antisense rUrCrArUrGrUrUrUrArCrUrCrUrCrGrArUrGrAdGdC,71.5
2,sense rUrGrArUrCrUrUrArCrCrArArUrArUrArUrUrUdTdT / antisense rArArArUrArUrArUrUrGrGrUrArArGrArUrCrAdTdA,68.4
3,sense rUrGrUrArCrCrUrCrCrArCrCrGrArCrCrArGrAdTdT / antisense rUrCrUrGrGrUrCrGrGrUrGrGrArGrGrUrArCrAdTdG,95.7
4,sense rUrGrUrArGrUrGrArArGrUrUrUrUrArUrGrGrAdTdT / antisense rUrCrCrArUrArArArArCrUrUrCrArCrUrArCrAdAdA,75.6
5,sense rUrUrArUrGrGrArCrCrArCrArArGrGrArArCrAdTdT / antisense rUrGrUrUrCrCrUrUrGrUrGrGrUrCrCrArUrArAdAdA,91.7

# Target: RHOQ
# Test: reporter assay of Huesken 2005
# Conditions: siRNA
row,Substance,normalised inhibition (eCFP-eYFP dual reporter) [%]
1,sense rArArArUrCrArArUrUrArArCrArUrArUrUrArGdTdT / antisense rCrUrArArUrArUrGrUrUrArArUrUrGrArUrUrUdAdT,46.2
2,sense rArArArUrGrArCrArGrCrCrUrUrArArArUrGrCdTdT / antisense rGrCrArUrUrUrArArGrGrCrUrGrUrCrArUrUrUdTdC,42.3
3,sense rArArArUrGrGrUrGrGrUrUrCrArCrArUrUrArAdTdT / antisense rUrUrArArUrGrUrGrArArCrCrArCrCrArUrUrUdCdT,85.8
4,sense rArArUrArUrArArGrCrArUrCrArCrCrUrUrCrCdTdT / antisense rGrGrArArGrGrUrGrArUrGrCrUrUrArUrArUrUdTdT,51.8
5,sense rArArUrGrCrUrCrArUrArUrCrArGrUrCrArCrAdTdT / antisense rUrGrUrGrArCrUrGrArUrArUrGrArGrCrArUrUdTdA,76
6,sense rArCrArCrUrArArArCrUrUrUrUrArUrArCrUrUdTdT / antisense rArArGrUrArUrArArArArGrUrUrUrArGrUrGrUdTdC,76.1
7,sense rArCrArGrArUrUrGrGrGrUrArArUrGrGrArArCdTdT / antisense rGrUrUrCrCrArUrUrArCrCrCrArArUrCrUrGrUdGdC,47.1
8,sense rArCrUrUrUrCrUrUrArUrUrUrArArUrUrUrUrGdTdT / antisense rCrArArArArUrUrArArArUrArArGrArArArGrUdTdA,43.6
9,sense rArGrArUrUrGrGrGrUrArArUrGrGrArArCrArCdTdT / antisense rGrUrGrUrUrCrCrArUrUrArCrCrCrArArUrCrUdGdT,72
10,sense rArGrGrArUrGrUrArCrUrGrUrCrUrUrGrUrUrGdTdT / antisense rCrArArCrArArGrArCrArGrUrArCrArUrCrCrUdAdG,81.7
11,sense rArUrArArArArUrUrGrArArArGrGrArArUrUrGdTdT / antisense rCrArArUrUrCrCrUrUrUrCrArArUrUrUrUrArUdCdT,36.4
12,sense rArUrArArArUrCrArArUrUrArArCrArUrArUrUdTdT / antisense rArArUrArUrGrUrUrArArUrUrGrArUrUrUrArUdAdC,38.4
13,sense rArUrArArUrGrGrArUrGrCrArUrCrArGrArUrAdTdT / antisense rUrArUrCrUrGrArUrGrCrArUrCrCrArUrUrArUdCdT,80.8
14,sense rArUrCrArGrUrCrArCrArArArUrCrUrArGrGrAdTdT / antisense rUrCrCrUrArGrArUrUrUrGrUrGrArCrUrGrArUdAdT,75.3
15,sense rArUrCrUrUrArUrGrUrArArCrUrUrUrCrUrUrAdTdT / antisense rUrArArGrArArArGrUrUrArCrArUrArArGrArUdTdC,59.1
16,sense rArUrGrGrArArCrArCrUrArArArCrUrUrUrUrAdTdT / antisense rUrArArArArGrUrUrUrArGrUrGrUrUrCrCrArUdTdA,82.1
17,sense rArUrGrGrArArUrCrUrUrArUrGrUrArArCrUrUdTdT / antisense rArArGrUrUrArCrArUrArArGrArUrUrCrCrArUdTdT,51.1
18,sense rArUrGrGrArUrGrCrArUrCrArGrArUrArArUrGdTdT / antisense rCrArUrUrArUrCrUrGrArUrGrCrArUrCrCrArUdTdA,82.5
19,sense rCrArArArUrCrUrArGrGrArUrGrUrArCrUrGrUdTdT / antisense rArCrArGrUrArCrArUrCrCrUrArGrArUrUrUrGdTdG,79.4
20,sense rCrArArGrArArArUrGrGrUrGrGrUrUrCrArCrAdTdT / antisense rUrGrUrGrArArCrCrArCrCrArUrUrUrCrUrUrGdGdA,84.9
21,sense rCrArCrArUrUrArArArGrUrArUrCrArUrGrGrCdTdT / antisense rGrCrCrArUrGrArUrArCrUrUrUrArArUrGrUrGdAdA,62.4
22,sense rCrArGrArUrArArUrGrGrArUrGrCrArUrCrArGdTdT / antisense rCrUrGrArUrGrCrArUrCrCrArUrUrArUrCrUrGdAdT,80.4
23,sense rCrArGrArUrUrGrGrGrUrArArUrGrGrArArCrAdTdT / antisense rUrGrUrUrCrCrArUrUrArCrCrCrArArUrCrUrGdTdG,86.3
24,sense rCrArUrGrCrArUrCrArGrArUrArArUrGrGrArUdTdT / antisense rArUrCrCrArUrUrArUrCrUrGrArUrGrCrArUrGdGdC,72.3

row,Substance,normalised inhibition (eCFP-eYFP dual reporter) [%]
1,sense rCrArUrUrUrArArArCrUrUrGrCrUrGrUrUrGrCdTdT / antisense rGrCrArArCrArGrCrArArGrUrUrUrArArArUrGdTdA,74.6
2,sense rCrArUrUrUrGrGrArUrGrUrCrUrUrCrUrUrUrCdTdT / antisense rGrArArArGrArArGrArCrArUrCrCrArArArUrGdTdC,73.6
3,sense rCrCrUrUrArUrGrUrArUrGrCrUrCrArArArUrGdTdT / antisense rCrArUrUrUrGrArGrCrArUrArCrArUrArArGrGdCdC,65.1
4,sense rCrUrArCrArUrUrUrArArArCrUrUrGrCrUrGrUdTdT / antisense rArCrArGrCrArArGrUrUrUrArArArUrGrUrArGdGdA,82.5
5,sense rCrUrCrArArArUrGrGrArArUrCrUrUrArUrGrUdTdT / antisense rArCrArUrArArGrArUrUrCrCrArUrUrUrGrArGdCdA,55.5
6,sense rCrUrGrGrArUrGrArCrUrGrGrCrCrArGrGrArAdTdT / antisense rUrUrCrCrUrGrGrCrCrArGrUrCrArUrCrCrArGdTdA,75.7
7,sense rCrUrGrUrGrGrArUrCrUrGrCrCrUrUrArUrUrGdTdT / antisense rCrArArUrArArGrGrCrArGrArUrCrCrArCrArGdCdA,79
8,sense rCrUrUrArUrGrUrArUrGrCrUrCrArArArUrGrGdTdT / antisense rCrCrArUrUrUrGrArGrCrArUrArCrArUrArArGdGdC,44
9,sense rCrUrUrArUrUrUrArArUrUrUrUrGrGrUrCrUrGdTdT / antisense rCrArGrArCrCrArArArArUrUrArArArUrArArGdAdA,52.2
10,sense rCrUrUrCrUrUrUrCrUrUrCrCrArArGrArArArUdTdT / antisense rArUrUrUrCrUrUrGrGrArArGrArArArGrArArGdAdC,53.7
11,sense rGrArArArGrGrArArUrUrGrUrArUrArArArUrCdTdT / antisense rGrArUrUrUrArUrArCrArArUrUrCrCrUrUrUrCdAdA,51.4
12,sense rGrArGrArGrUrCrUrArCrUrGrGrArUrGrArCrUdTdT / antisense rArGrUrCrArUrCrCrArGrUrArGrArCrUrCrUrCdTdC,77.3
13,sense rGrCrArUrCrArGrArUrArArUrGrGrUrGrUrUrAdTdT / antisense rUrArArCrArCrCrArUrUrArUrCrUrGrArUrGrCdAdT,92.8
14,sense rGrGrArUrGrUrCrUrUrCrUrUrUrCrUrUrCrCrAdTdT / antisense rUrGrGrArArGrArArArGrArArGrArCrArUrCrCdAdA,83.2
15,sense rUrArArArGrUrArUrCrArUrGrGrCrCrUrUrArUdTdT / antisense rArUrArArGrGrCrCrArUrGrArUrArCrUrUrUrAdAdT,75.9
16,sense rUrArCrUrGrGrArUrGrArCrUrGrGrCrCrArGrGdTdT / antisense rCrCrUrGrGrCrCrArGrUrCrArUrCrCrArGrUrAdGdA,55.2
17,sense rUrArGrCrUrArUrGrUrCrUrArCrUrGrCrArCrAdTdT / antisense rUrGrUrGrCrArGrUrArGrArCrArUrArGrCrUrAdTdA,86.8
18,sense rUrArUrArGrCrUrArUrGrUrCrUrArCrUrGrCrAdTdT / antisense rUrGrCrArGrUrArGrArCrArUrArGrCrUrArUrAdAdG,77.6
19,sense rUrArUrGrCrCrArUrGrCrArUrCrArGrArUrArAdTdT / antisense rUrUrArUrCrUrGrArUrGrCrArUrGrGrCrArUrAdTdG,75.7
20,sense rUrArUrGrCrUrCrArArArUrGrGrArArUrCrUrUdTdT / antisense rArArGrArUrUrCrCrArUrUrUrGrArGrCrArUrAdCdA,54.7
21,sense rUrCrArCrArUrGrArCrUrUrGrArGrCrUrUrArUdTdT / antisense rArUrArArGrCrUrCrArArGrUrCrArUrGrUrGrAdAdT,87
22,sense rUrCrGrGrArCrArUrUrUrGrGrArUrGrUrCrUrUdTdT / antisense rArArGrArCrArUrCrCrArArArUrGrUrCrCrGrAdTdT,83
23,sense rUrCrUrUrArUrUrUrArArUrUrUrUrGrGrUrCrUdTdT / antisense rArGrArCrCrArArArArUrUrArArArUrArArGrAdAdA,44.2
